The record followed here is patent US7994318B2, “Coumarin derivatives useful as TNFα inhibitors” (Chugai Seiyaku Kabushiki Kaisha, priority 2000, dated 2011).

The first assay concerns TNFα. The experiment in a line: In vitro assay: TNFα ELISA of supernatants of LPS-stimulated human PBMC. The following applies: Homo sapiens, PBMC, human PBMC pretreated with drug 60 min, stimulated with LPS (E. coli O55:B5) 100 ng/mL, overnight culture, TNFα in supernatant by ELISA; read-out: 50% Inhibition of TNFα level (IC50). The assay is classed as cell-based. How it is done: Enzyme-linked immunosorbent assays (ELISA) for TNFα can be performed in a conventional manner (Blood, 75, 40-47 (1990)). Human PBMC are isolated from heparinized venous blood obtained from healthy volunteers by Ficoll-Hypaque density centrifugation. The cells are cultured in RPMI1640 medium supplemented with 5% heat-inactivated fetal calf serum and antibiotics. PBMC (5×10E5 cells/mL) in 0.2 mL aliquot are pretreated with drugs in DMSO for 60 min at 37° C. in 96 well round-bottomed tissue culture plates. Thereafter, PBMC in the presence or absence of compound are stimulated with 1 mg/mL LPS from E. coli O55:B5 at a final concentration of 100 ng/mL. After overnight culture, the supernatants are harvested and assayed immediately for TNFα levels from each well. The concentration of TNFα in the supernatant is determined by human TNFα ELISA Kit according to the manufacture's directions.
Active compounds are characterized by the concentration of the compound that caused 50% inhibition of TNFα level (IC50).
Background: ELISA stands for enzyme-linked immunosorbent assay.
The term IC50 denotes the midpoint of a concentration-inhibition curve. In the case of `Cc1c(Cc2ccccc2)c(=O)oc2cc(Oc3ncccn3)ccc12` [Example 15, 2-oxo-2H-3-benzyl-4-methyl-7-(pyrimidin-2-yloxyl)-1-benzopyrane], the IC50 was determined as 9.4 µM.

Consider `Cc1c(Cc2ccccc2)c(=O)oc2cc(Oc3ncccn3)c(Cl)cc12` [Example 16, 2-oxo-2H-3-benzyl-4-methyl-6-chloro-7-(pyrimidin-2-yloxyl)-1-benzopyrane], for which the IC50 amounted to 6.8 µM.

In the case of `Cc1c(Cc2cccnc2)c(=O)oc2cc(Oc3ncccn3)c(Cl)cc12` [Example 17, 2-oxo-2H-3-(3-pyridylmethyl)-4-methyl-6-chloro-7-(pyrimidin-2-yloxyl)-1-benzopyrane], the half-inhibitory concentration (IC50) came to 50 µM.

With `CCOC(=O)CC(=O)Nc1cccc(Cc2c(C)c3ccc(Oc4ncccn4)cc3oc2=O)c1` [Example 19, 2-oxo-2H-3-(m-ethoxycarbonyl-acetylaminobenzyl)-4-methyl-7-(pyrimidin-2-yloxyl)-1-benzopyrane], the IC50 was less than 0.6 µM.

Regarding `Cc1c(Cc2ccccc2)c(=O)oc2cc(Oc3nccs3)ccc12` [Example 21, 2-oxo-3-benzyl-4-methyl-7-(thiazol-2-yloxyl)-2H-1-benzopyrane], the 50% inhibitory concentration (IC50) was determined as 9.1 µM.

In the case of `C=Cc1ccc2c(C)c(Cc3ccccc3)c(=O)oc2c1` [Example 23, 2-oxo-3-benzyl-4-methyl-7-vinyl-2H-1-benzopyrane], the half-inhibitory concentration (IC50) amounted to 10.3 µM.

On to `Cc1c(Cc2ccccc2)c(=O)oc2cc(C(F)(F)C(=O)N(C)C)ccc12` [Example 24, 2-oxo-3-benzyl-4-methyl-7-(N,N-dimethylaminocarboxy-difluoromethyl)-1H-benzopyrane], for which the IC50 is 10.4 µM.

For the compound `Cc1c(Cc2ccccc2)c(=O)oc2cc(Cn3ccnc3N)ccc12` [Example 25, 2-oxo-3-benzyl-4-methyl-7-(2-aminoimidazol-1-yl-methyl)-1H-benzopyrane], the IC50 is 11.8 µM.

The assay is the same for the next values; noted with them: human PBMC pretreated with drug 60 min, stimulated with LPS (E. coli O55:B5) 100 ng/mL, overnight culture, TNFα in supernatant by ELISA; read-out: 50% Inhibition of TNFα level (IC50).
As for `CCc1c(Cc2cccc(NC(C)=O)c2)c(=O)oc2cc(OC(=O)N(C)C)ccc12` [Example 14-79], the IC50 was 1.6 µM.

In the case of `CCc1c(Cc2ccncc2)c(=O)oc2cc(OC(=O)N(C)C)ccc12` [Example 14-80], the IC50 is 2.4 µM.

With `CCc1c(Cc2ccncc2)c(=O)oc2cc(OC(=O)N(C)C)c(Cl)cc12` [Example 14-81], the IC50 amounted to 0.34 µM.

For the compound `CCCc1c(Cc2ccccc2)c(=O)oc2cc(OC(=O)N(C)C)c(Cl)cc12` [Example 14-83], the IC50 turned out to be 0.78 µM.

For the compound `CN(C)C(=O)Oc1ccc2c(-c3ccccc3)c(Cc3ccc(F)cc3)c(=O)oc2c1` [Example 14-84], the IC50 amounted to 1.67 µM.

Take `Cc1c(Cc2ccccc2)c(=O)oc2cc(Oc3ncccn3)c(Br)cc12` [Example 20-4]: the IC50 was found to be 9.5 µM.

As to `Cc1c(Cc2ccccc2)c(=O)oc2cc(Oc3ncccn3)c(I)cc12` [Example 20-5], the IC50 was determined as 8.8 µM.

As for `Cc1c(Cc2ccncc2)c(=O)oc2cc(Oc3ncccn3)ccc12` [Example 20-10], the IC50 was found to be 10.4 µM.

On to `Cc1c(Cc2ccncc2)c(=O)oc2cc(Oc3ncccn3)c(Cl)cc12` [Example 20-13], for which the half-maximal inhibitory concentration (IC50) was determined as 7.5 µM.

In the case of `Cc1c(Cc2ccccc2)c(=O)oc2cc(Oc3ncccn3)cc(F)c12` [Example 20-14], the IC50 was found to be 9.7 µM.

Consider `Cc1c(Cc2cccc(N)c2)c(=O)oc2cc(Oc3ncccn3)ccc12` [Example 20-19], for which the IC50 turned out to be 7.2 µM.

Consider `CC(=O)Nc1cccc(Cc2c(C)c3ccc(Oc4ncccn4)cc3oc2=O)c1` [Example 20-20], for which the IC50 stood at 6.6 µM.

`CCOC(=O)CCC(=O)Nc1cccc(Cc2c(C)c3ccc(Oc4ncccn4)cc3oc2=O)c1` [Example 20-21]: the IC50 came to 2.8 µM.

On to `Cc1c(Cc2cccc(N)c2)c(=O)oc2cc(Oc3ncccn3)c(Cl)cc12` [Example 20-26], for which the half-maximal inhibitory concentration (IC50) was 9.8 µM.

On to `Cc1c(Cc2cccc(N(C)C)c2)c(=O)oc2cc(Oc3ncccn3)c(Cl)cc12` [Example 20-27], for which the IC50 is 5.1 µM.

Take `CCOC(=O)CCC(=O)Nc1cccc(Cc2c(C)c3cc(Cl)c(Oc4ncccn4)cc3oc2=O)c1` [Example 20-28]: the IC50 was 1.2 µM.

In the case of `CCOC(=O)CC(=O)Nc1cccc(Cc2c(C)c3cc(Cl)c(Oc4ncccn4)cc3oc2=O)c1` [Example 20-29], the IC50 is less than 0.6 µM.

Consider `CC(=O)NCC(=O)Nc1cccc(Cc2c(C)c3cc(Cl)c(Oc4ncccn4)cc3oc2=O)c1` [Example 20-30], for which the concentration for half-maximal inhibition (IC50) worked out at 5.8 µM.

Take `Cc1c(Cc2cccc(NC(=O)CNC(=O)OCc3ccccc3)c2)c(=O)oc2cc(Oc3ncccn3)c(Cl)cc12` [Example 20-31]: the half-inhibitory concentration (IC50) was determined as 9.8 µM.

With `Cc1c(Cc2cccc(NC(=O)CCNC(=O)OCc3ccccc3)c2)c(=O)oc2cc(Oc3ncccn3)c(Cl)cc12` [Example 20-32], the half-inhibitory concentration (IC50) was 11.4 µM.

As for `Cc1c(Cc2cccc(NC(=O)CC(=O)O)c2)c(=O)oc2cc(Oc3ncccn3)c(Cl)cc12` [Example 20-34], the IC50 was 10.6 µM.

Turning to `CC(=O)Nc1cccc(Cc2c(C)c3c(Cl)cc(Oc4ncccn4)cc3oc2=O)c1` [Example 20-37], the IC50 is 11.8 µM.

For `CC(=O)Nc1cccc(Cc2c(C)c3c(F)cc(Oc4ncccn4)cc3oc2=O)c1` [Example 20-39], the half-maximal inhibitory concentration (IC50) turned out to be 5.4 µM.

`CCOC(=O)CC(=O)Nc1cccc(Cc2c(C)c3c(F)cc(Oc4ncccn4)cc3oc2=O)c1` [Example 20-40]: the IC50 is less than 0.6 µM.

In the case of `Cc1c(Cc2cccc(NS(C)(=O)=O)c2)c(=O)oc2cc(Oc3ncccn3)c(Cl)cc12` [Example 20-41], the IC50 is less than 0.6 µM.

As to `CC(=O)CC(=O)Nc1cccc(Cc2c(C)c3cc(Cl)c(Oc4ncccn4)cc3oc2=O)c1` [Example 20-42], the IC50 was 2.2 µM.

As for `CC(=O)Nc1cccc(Cc2c(C)c3cc(Cl)c(Oc4ncccn4)cc3oc2=O)c1` [Example 20-43], the IC50 came out at 3.1 µM.

As to `CCS(=O)(=O)Nc1cccc(Cc2c(C)c3cc(Cl)c(Oc4ncccn4)cc3oc2=O)c1` [Example 20-44], the IC50 worked out at 0.3 µM.

With `Cc1ccc(S(=O)(=O)Nc2cccc(Cc3c(C)c4cc(Cl)c(Oc5ncccn5)cc4oc3=O)c2)cc1` [Example 20-45], the IC50 was found to be 7.2 µM.

Turning to `CCCS(=O)(=O)Nc1cccc(Cc2c(C)c3cc(Cl)c(Oc4ncccn4)cc3oc2=O)c1` [Example 20-46], the IC50 is 0.96 µM.

In the case of `Cc1c(Cc2cccc(NS(=O)(=O)C(C)C)c2)c(=O)oc2cc(Oc3ncccn3)c(Cl)cc12` [Example 20-47], the IC50 came out at 0.31 µM.

As to `CCCCS(=O)(=O)Nc1cccc(Cc2c(C)c3cc(Cl)c(Oc4ncccn4)cc3oc2=O)c1` [Example 20-48], the IC50 turned out to be 1.8 µM.

As to `CCc1c(Cc2ccccc2)c(=O)oc2cc(Oc3ncccn3)ccc12` [Example 20-49], the half-inhibitory concentration (IC50) stood at 10.9 µM.

With `CCc1c(Cc2ccccc2)c(=O)oc2cc(Oc3ncccn3)c(Cl)cc12` [Example 20-50], the IC50 was 4.5 µM.

Turning to `CCc1c(Cc2cccc(NC(C)=O)c2)c(=O)oc2cc(Oc3ncccn3)ccc12` [Example 20-54], the IC50 is 6.7 µM.

With `CCc1c(Cc2cccc([N+](=O)[O-])c2)c(=O)oc2cc(Oc3ncccn3)c(Cl)cc12` [Example 20-55], the IC50 was determined as 6.4 µM.

On to `CCc1c(Cc2cccc(N)c2)c(=O)oc2cc(Oc3ncccn3)c(Cl)cc12` [Example 20-56], for which the IC50 is 7.8 µM.

In the case of `CCc1c(Cc2cccc(NC(C)=O)c2)c(=O)oc2cc(Oc3ncccn3)c(Cl)cc12` [Example 20-57], the IC50 was 3.6 µM.

For `CCc1c(Cc2cccc([N+](=O)[O-])c2)c(=O)oc2cc(Oc3ncccn3)cc(F)c12` [Example 20-58], the half-inhibitory concentration (IC50) is 11.9 µM.

Take `CCc1c(Cc2cccc(N)c2)c(=O)oc2cc(Oc3ncccn3)cc(F)c12` [Example 20-59]: the IC50 came to 5.9 µM.

On to `CCc1c(Cc2cccc(NC(C)=O)c2)c(=O)oc2cc(Oc3ncccn3)cc(F)c12` [Example 20-60], for which the IC50 was found to be 4.4 µM.

On to `CCOC(=O)CC(=O)Nc1cccc(Cc2c(CC)c3c(F)cc(Oc4ncccn4)cc3oc2=O)c1` [Example 20-61], for which the half-maximal inhibitory concentration (IC50) amounted to 0.65 µM.

On to `Cc1c(Cc2ccccc2)c(=O)oc2cc(Oc3nccs3)ccc12` [Example 21, 2-oxo-3-benzyl-4-methyl-7-(thiazol-2-yloxyl)-2H-1-benzopyrane], for which the IC50 was found to be 10.5 µM.

Turning to `Cc1c(Cc2cccc([N+](=O)[O-])c2)c(=O)oc2cc(Oc3nccs3)ccc12` [Example 22-2], the IC50 came out at 6.6 µM.

Take `Cc1c(Cc2cccc([N+](=O)[O-])c2)c(=O)oc2cc(Oc3nccs3)cc(F)c12` [Example 22-3]: the IC50 turned out to be 10.1 µM.

On to `Cc1c(Cc2cccc(N)c2)c(=O)oc2cc(Oc3nccs3)ccc12` [Example 22-4], for which the IC50 worked out at 6 µM.

As to `CCOC(=O)CC(=O)Nc1cccc(Cc2c(C)c3ccc(Oc4nccs4)cc3oc2=O)c1` [Example 22-6], the IC50 amounted to 0.25 µM.

For `CCc1c(Cc2cccc(N)c2)c(=O)oc2cc(Oc3nccs3)ccc12` [Example 22-7], the concentration for half-maximal inhibition (IC50) was 4.2 µM.

Consider `CCc1c(Cc2cccc(NC(C)=O)c2)c(=O)oc2cc(Oc3nccs3)ccc12` [Example 22-8], for which the half-maximal inhibitory concentration (IC50) was less than 0.6 µM.

As to `CCOC(=O)CC(=O)Nc1cccc(Cc2c(CC)c3ccc(Oc4nccs4)cc3oc2=O)c1` [Example 22-9], the half-maximal inhibitory concentration (IC50) worked out at 0.27 µM.

For `CCc1c(Cc2ccccc2)c(=O)oc2cc(Oc3nccs3)ccc12` [Example 22-10], the half-inhibitory concentration (IC50) stood at 2.5 µM.

Turning to `CCc1c(Cc2cccc([N+](=O)[O-])c2)c(=O)oc2cc(Oc3nccs3)ccc12` [Example 22-11], the IC50 was found to be 3.2 µM.

Regarding `Cc1c(Cc2ccccc2)c(=O)oc2cc(Cn3ccnc3N)ccc12` [Example 25, 2-oxo-3-benzyl-4-methyl-7-(2-aminoimidazol-1-yl-methyl)-1H-benzopyrane], the 50% inhibitory concentration (IC50) turned out to be 13.7 µM.

Regarding `Cc1c(Cc2ccccc2)c(=O)oc2cc(C=O)ccc12` [Example 26-1], the IC50 is 6.3 µM.
